This is an account of results in ChEMBL document CHEMBL1777675, “N-hydroxy-N'-aminoguanidines as anti-cancer lead molecule: QSAR, synthesis and biological evaluation” (Bioorg Med Chem Lett, 2011).

As usually defined, the CC50 is the concentration giving 50% cytotoxicity. As usually defined, the IC50 is the concentration that inhibits the measured activity by half.

A short description of series [1]: Cytotoxicity against human HeLa cells. It counts as cell-based.
In another series the test system is HL-60. Description: Anticancer activity against human HL60 cells. It counts as functional, cell-based.
Series [2] can be described thus: Cytotoxicity against african green monkey Vero cells. It counts as cell-based. The settings on record: chlorocebus sabaeus.
The test system of a further series is L1210. The series can be described thus: Cytotoxicity against mouse L1210 cells after 65 hrs by MTS/PES microculture tetrazolium assay. It counts as functional, cell-based. The following applies: L1210, 65 h.

For the molecule `N=C(NO)N/N=C/c1ccccc1`, the CC50 in series [1] and in series [2] was over 100 µM in each case. This molecule yielded an IC50 with HL-60 of 62 µM.

Take `O=C(NO)N/N=C/C1CCCCC1`: the IC50 in the series on L1210 was 21.2 µM.

Take `Cc1ccn(C)c1/C=N/NC(=N)NO`: in the series on L1210, half-maximal inhibition (IC50) required 2.7 µM.

Take `CCCCCCOc1ccc(/C=N/NC(=N)NO)cc1`: inhibition with L1210 was half-maximal at 7.8 µM (IC50). For the molecule `COc1ccc(/C=N/NC(=N)NO)cc1`, the CC50 in series [1] and in series [2] was over 100 µM throughout. Moreover, the IC50 in the series on HL-60 was over 100 µM. With `N=C(NO)N/N=C/c1ccc(Cl)cc1`, the 50% cytotoxic concentration (CC50) in series [1] and in series [2] was over 100 µM each time. In the series on HL-60, this molecule returned an IC50 of over 100 µM.

Regarding `N/C(=N\O)N/N=C/c1cccc(I)c1`, 12.5 µM corresponded to half-maximal inhibition in the series on L1210 (IC50). Molecule `N/C(=N/N=C/c1ccccn1)NO` gave a 50% inhibitory concentration (IC50) in the series with L1210 of 10.9 µM. As to `Cc1ccccc1/C=N/NC(=N)NO`, the CC50 in series [1] and in series [2] was over 100 µM in each case. Moreover, in the series on HL-60, the IC50 was over 100 µM. With `CN(C)c1ccc(/C=N/NC(=N)NO)cc1`, the CC50 in series [1] and in series [2] was over 100 µM in each case. The same molecule came in with an IC50 in the series on HL-60 of over 100 µM. As to `N=C(NO)N/N=C/c1ccc(O)cc1`, the CC50 in series [1] and in series [2] was over 100 µM in each case. Besides, the IC50 with HL-60 is over 100 µM. `CS(=O)(=O)Oc1ccc(/C=N/NC(=N)NO)cc1` gave an IC50 in the series with L1210 of 14.8 µM. Same read-out and setting: the value for `O=C(NO)N/N=C\C1=CCc2c(Cl)cc(Cl)cc2C1=O` was 28.2 µM. With `N/C(=N\O)N/N=C/c1ccccc1O`, the CC50 in series [1] and in series [2] was over 100 µM each time. The molecule also showed an IC50 in the series on HL-60 of 95 µM. For the molecule `Cc1ccc(/C=N/NC(=N)NO)cc1`, the CC50 in series [1] and in series [2] was over 100 µM each time. This molecule had an IC50 in the series on HL-60 of 67 µM. `COc1cccc(/C=N/NC(=N)NO)c1`: it took 16 µM to reach half-maximal inhibition in the series with L1210 (IC50). Consider `COc1ccc(/C=N/NC(=N)NO)cc1O`, for which the CC50 in series [1] and in series [2] was over 100 µM in each case. In addition, the IC50 with HL-60 was over 100 µM. `N=C(NO)N/N=C1\C(=O)Nc2ccccc21` had an IC50 with L1210 of 48.4 µM. For the molecule `N=C(NO)N/N=C/c1c2ccccc2cc2ccccc12`, the CC50 in series [1] and in series [2] was over 100 µM each time. Moreover, it took 11 µM to reach half-maximal inhibition in the series with HL-60 (IC50). In the series on L1210, `CCCCOc1ccc(/C=N/NC(=N)NO)cc1` gave an IC50 of 8.53 µM. The same measure, in the same setting: the value for `N=C(NN)NO` was 126 µM. On to `N=C(NO)N/N=C/c1ccccc1Cl`, for which the CC50 in series [1] and in series [2] was over 100 µM throughout. Further, inhibition with HL-60 was half-maximal at 60 µM (IC50). As for `N=C(NO)N/N=C/c1ccco1`, the half-maximal cytotoxic concentration (CC50) in series [1] and in series [2] was over 100 µM throughout. This molecule yielded an IC50 in the series with HL-60 of over 100 µM. As for `N=C(NO)N/N=C/c1cc2ccccc2cn1`, in the series with L1210, the IC50 was 3.3 µM. The same measure, in the same setting: the value for `O=C(NO)N/N=C/C1CC2C=CC1C2` (configuration not stated) was 10.6 µM.

`COc1ccccc1/C=N/N=C(\N)NO`: the CC50 in series [1] and in series [2] was over 100 µM each time. The half-maximal inhibitory concentration (IC50) in the series with HL-60 was over 100 µM. The molecule `N/C(=N\O)N/N=C/c1cccs1` gave a half-inhibitory concentration (IC50) with L1210 of 34.1 µM. As to `Cc1cccc(/C=N/N=C(\N)NO)n1`, half-maximal inhibition in the series on L1210 (IC50) was put at 42.1 µM. Same read-out and setting: then `Cc1ccsc1/C=N/N=C(/N)NO`, with 33.2 µM. Still for that read-out and setting: then `N/C(=N\O)N/N=C/c1cccc(C(F)(F)F)c1`, with 15.1 µM; and `CC(C)c1ccc2c(c1)C(=O)C(/C=N\NC(=O)NO)=CC2`, with 32.2 µM.
